Experimental data: patent publication US20170326146A1, “METHODS OF TREATING HEPATITIS B INFECTIONS AND RELATED DOSAGE REGIMES” (ContraVir Pharmaceuticals, Inc., priority 2016, published 2017)
“And” between values parts separate entries of the source, which are not always exact repeats. Equal values may be shown once.

Assays:
[1] = Pharmacokinetics of Compound I in human plasma: plasma concentrations of Compound I and tenofovir; format: in vivo; design: unit not given here; conditions: single oral 5 mg dose of Compound I, individual subjects
Description: The pharmacokinetics of Compound I in human plasma was also evaluated. Plasma concentrations of Compound I and tenofovir (TFV) were measured at various time points up to 24 h after oral administration of a single 5 mg dose of Compound I. The results are summarized in Table 2.

[2] = Phase I clinical trial with healthy adults: safety, blood pressure, ECG; format: in vivo, human; conditions: healthy subjects
Description: Eight healthy subjects were given Compound I orally at a daily dose of 5 mg for administration periods of between 9 and 14 days. […] Additionally, a placebo was administered to four healthy subjects for administration periods of between 9 and 14 days. The subjects were evaluated for changes in baseline blood pressure (FIGS. 1A and 1B: Changes in systolic and diastolic blood pressure, respectively, after administration of 5 mg of Compound I; FIGS. 2A and 2B: Changes in systolic and diastolic blood pressure, respectively, after administration of 10 mg of Compound I; FIGS. 3A and 3B: Changes in systolic and diastolic blood pressure, respectively, after administration of placebo). Furthermore, electrocardiograms (ECGs) were recorded to evaluate the change in baseline of heart rate, RR intervals, PR intervals, QRS duration and QTcF in each subject (FIGS. 4A and 4B: Changes in heart rate and RR interval, respectively, after administration of 5 mg of Compound I; FIGS. 5A and 5B: Changes in heart rate and RR interval, respectively, after administration of 10 mg of Compound I; FIGS. 6A and 6B: Changes in heart rate and RR interval, respectively, after administration of placebo; FIGS. 7A, 7B, and 7C: Changes in PR interval, QRS duration, and QTcF duration, respectively, after administration of 5 mg of Compound I; FIGS. 8A, 8B and 8C: Changes in PR interval, QRS duration, and QTcF duration, respectively, after administration of 10 mg of Compound I; FIGS. 9A, 9B and 9C: Changes in PR interval, QRS duration, and QTcF duration, respectively, after administration of placebo). In the Figures, as well as in Table 2 below, individual subjects are identified by 6-digit numbers. Subjects that were administered 5 mg of Compound I, 10 mg of Compound I, or a placebo, were monitored for between 15 and 18 days, between 9 and 11 days, or between 9 and 18 days after initiation of the study, respectively. […] The baselines are defined as the last variable assessment prior to initiation of the study.

[3] = 5 mg or 10 mg daily, dose groups and placebo not told apart

CCCCCCCCCCCCCCCCOCCCOP(=O)(O)CO[C@H](C)Cn1cnc2c(N)ncnc21 [Compound I, 3-(hexadecyloxy)propyl hydrogen ((R)-1-(6-amino-9H-purin 9-yl)propan-2-yloxy)methylphosphonate]
Pharmacokinetic plasma concentration of Compound I ([1]; 0.5 hours post-dose): 0.303 and 0.567 and <LLOQ < (0.150) (4×) and 1.090 and 0.893 | Pharmacokinetic plasma concentration of Compound I ([1]; 1 hour post-dose): 1.310 and 0.592 and 2.980 and 2.080 and <LLOQ < (0.150) (2×) and 1.570 and 0.743 | Pharmacokinetic plasma concentration of Compound I ([1]; 2 hours post-dose): 2.030 and 0.310 and 8.530 and 1.530 and 0.753 and 1.820 and 0.180 and 2.180 | Pharmacokinetic plasma concentration of Compound I ([1]; 2.5 hours post-dose): 0.412 and 1.550 and 1.350 and 5.250 and 1.340 and 1.500 and 0.206 and 1.070 | Pharmacokinetic plasma concentration of Compound I ([1]; 3 hours post-dose): 2.080 and 1.690 and 1.260 and 1.440 and 4.270 and 1.640 and 4.430 and 0.197 | Pharmacokinetic plasma concentration of Compound I ([1]; 4 hours post-dose): 1.180 and 2.460 and 0.712 and 0.508 and 1.500 and 0.520 and 1.540 and <LLOQ < (0.150) | Pharmacokinetic plasma concentration of Compound I ([1]; 6 hours post-dose): 0.448 and 0.891 and 0.179 and <LLOQ < (0.150) (3×) and 0.372 and 0.389 | Pharmacokinetic plasma concentration of Compound I ([1]; 10 hours post-dose): <LLOQ < (0.150) | Pharmacokinetic plasma concentration of Compound I ([1]; 12 hours post-dose): <LLOQ < (0.150) | Pharmacokinetic plasma concentration of Compound I ([1]; 15 hours post-dose): <LLOQ < (0.150) | Pharmacokinetic plasma concentration of Compound I ([1]; 18 hours post-dose): <LLOQ < (0.150) | Pharmacokinetic plasma concentration of Compound I ([1]; 24 hours post-dose): <LLOQ < (0.150) | Pharmacokinetic plasma concentration of Compound I ([1]; Pre-dose): <LLOQ < (0.150) | Adverse events reported [2, 3]: Few, minor adverse events (i.e., mild dizziness, headache or nausea) | ECG abnormalities reported [2, 3]: few ECG abnormalities (i.e., intraventricular conduction defect, frequent ventricular complexes and ectopic supraventricular rhythm) | Premature discontinuation of the study ([2]; 5 mg or 10 mg of Compound I daily or placebo): No subjects needed to discontinue the study prematurely | Safety and tolerability ([2]; oral daily dose of 5 mg for 9-14 days): safe and well-tolerated | Safety and tolerability ([2]; oral daily dose of 10 mg for 9-14 days): safe and well-tolerated

C[C@H](Cn1cnc2c(N)ncnc21)OCP(=O)(O)O [TFV, tenofovir]
Pharmacokinetic plasma concentration of TFV ([1]; 0.5 hours post-dose): <LLOQ < (0.500) | Pharmacokinetic plasma concentration of TFV ([1]; 1 hour post-dose): <LLOQ < (0.500) | Pharmacokinetic plasma concentration of TFV ([1]; 2 hours post-dose): 0.519 and <LLOQ < (0.500) (4×) and 0.528 and 0.733 | Pharmacokinetic plasma concentration of TFV ([1]; 2.5 hours post-dose): 0.822 and 0.693 and 0.665 and 0.708 and 0.596 and <LLOQ < (0.500) and 0.959 | Pharmacokinetic plasma concentration of TFV ([1]; 3 hours post-dose): 0.891 and <LLOQ < (0.500) (2×) and 0.764 and 0.900 and 0.781 and 0.648 and 0.918 | Pharmacokinetic plasma concentration of TFV ([1]; 4 hours post-dose): 1.140 (2×) and <LLOQ < (0.500) and 0.900 and 0.948 and 0.750 and 0.594 and 0.903 | Pharmacokinetic plasma concentration of TFV ([1]; 6 hours post-dose): 1.370 and 0.560 and 0.908 and 1.110 and 1.080 and 0.711 and 0.609 and 0.804 | Pharmacokinetic plasma concentration of TFV ([1]; 10 hours post-dose): 1.300 and 0.526 and 0.695 and 0.800 and 0.652 and 0.516 and 0.558 and 0.659 | Pharmacokinetic plasma concentration of TFV ([1]; 12 hours post-dose): 1.140 and <LLOQ < (0.500) (4×) and 0.535 and 0.664 and 0.574 | Pharmacokinetic plasma concentration of TFV ([1]; 15 hours post-dose): 1.040 and <LLOQ < (0.500) (6×) and 0.581 | Pharmacokinetic plasma concentration of TFV ([1]; 18 hours post-dose): 0.759 and <LLOQ < (0.500) (7×) | Pharmacokinetic plasma concentration of TFV ([1]; 24 hours post-dose): 0.599 and <LLOQ < (0.500) (7×) | Pharmacokinetic plasma concentration of TFV ([1]; Pre-dose): <LLOQ < (0.500)
